Experimental data reported in PMC6913882 (ACS chemical biology, 2018).
Where two headings read alike, the source gives them in different places.

Tests used:
Type in all cases: binding
[1] = molecular target: T1, DNA methyltransferase-1 (mDNMT1) (Mus musculus, UniProt P13864); experiment: SPR
[2] = molecular target: T2, DNA methyltransferase-1 (mDNMT1) (Mus musculus, UniProt P13864, N1248A); experiment: crystal structure at […] Å
[3] = molecular target: DNA methyltransferase-1 (mDNMT1) (Mus musculus, UniProt P13864, R1279D); experiment: SPR
Sequence of DNA methyltransferase-1 (mDNMT1) (Mus musculus, UniProt P13864, R1279D) (P13864 731-1602 R1279D): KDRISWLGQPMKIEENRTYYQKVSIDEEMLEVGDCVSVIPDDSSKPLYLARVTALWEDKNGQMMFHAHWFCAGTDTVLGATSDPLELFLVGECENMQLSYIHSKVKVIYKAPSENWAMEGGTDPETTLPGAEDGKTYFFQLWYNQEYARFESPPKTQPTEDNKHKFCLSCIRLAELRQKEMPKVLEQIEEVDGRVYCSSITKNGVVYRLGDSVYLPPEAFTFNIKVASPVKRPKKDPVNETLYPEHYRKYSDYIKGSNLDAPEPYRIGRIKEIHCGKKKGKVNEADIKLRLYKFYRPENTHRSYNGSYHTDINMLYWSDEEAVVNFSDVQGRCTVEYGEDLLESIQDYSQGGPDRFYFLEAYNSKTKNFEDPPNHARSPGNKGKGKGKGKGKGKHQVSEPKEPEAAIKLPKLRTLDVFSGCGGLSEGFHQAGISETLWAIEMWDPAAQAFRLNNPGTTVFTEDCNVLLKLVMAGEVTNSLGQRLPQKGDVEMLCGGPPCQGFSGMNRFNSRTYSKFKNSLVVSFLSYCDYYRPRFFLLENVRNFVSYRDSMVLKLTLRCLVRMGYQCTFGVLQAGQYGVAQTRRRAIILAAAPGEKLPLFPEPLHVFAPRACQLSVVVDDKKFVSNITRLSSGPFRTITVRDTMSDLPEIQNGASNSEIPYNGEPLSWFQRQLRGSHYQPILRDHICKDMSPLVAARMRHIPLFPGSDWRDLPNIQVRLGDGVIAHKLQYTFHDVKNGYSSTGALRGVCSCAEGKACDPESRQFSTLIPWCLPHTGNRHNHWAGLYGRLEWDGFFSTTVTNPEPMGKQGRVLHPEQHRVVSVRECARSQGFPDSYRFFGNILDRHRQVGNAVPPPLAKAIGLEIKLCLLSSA

[4] = molecular target: T1, DNA methyltransferase-1 (mDNMT1); experiment: SPR; remark: listed apart in the source
[5] = molecular target: T2, DNA methyltransferase-1 (mDNMT1); experiment: SPR

T2 sequence (P13864 731-1602 N1248A): as the sequence (P13864 731-1602 R1279D) above, with N518A, D549R counted along it
T1 sequence (P13864 731-1602): as the sequence (P13864 731-1602 R1279D) above, with D549R counted along it

Nc1ncnc2c1ncn2[C@@H]1O[C@H](CSCC[C@H](N)C(=O)O)[C@@H](O)[C@H]1O [AdoHcy]
Kd [1]: ~0.47 µM | Kd [2]: The N1248A mutant was bound to AdoHcy (Figure S5A)

C[S+](CC[C@H](N)C(=O)[O-])C[C@H]1O[C@@H](n2cnc3c(N)ncnc32)[C@H](O)[C@@H]1O (some centres unmarked) [AdoMet]
Kd [3]: 3.78 µM | Kd [4]: ~5.75 µM | Kd [5]: 6.61 µM
